The record followed here is patent US7118921B1, “Incorporation and applications of biomolecular interactions within a carrier” (McMaster University, priority 1999, dated 2006).

In this assay the test system is melittin and intact BCaM:melittin complex. Format: binding, bovine.

With `CN1CCN(CCCN2c3ccccc3Sc3ccc(C(F)(F)F)cc32)CC1` [TFP, trifluoperazine], the “Effect on emission wavelength and anisotropy of the intact complex or of melittin” value is “not affected”; the “Effect on intensity of melittin or the intact complex” value is listed as “large decrease in intensity”.
